According to a melting point compilation (Tetko et al.; mined from patent text by program, amines drawn as free bases though some values may be those of a salt):

SMILES | melting point [°C]
FC(F)(F)COc1ccccc1N1CCNCC1 | 107 to 108
Cc1cc(=O)n(C)c2cc(OCCCN3CCC(NC(=O)c4ccccc4)CC3)ccc12 | 193 to 195
O=C(NCCc1ccccc1)c1ccccn1 | 58 to 59
N#Cc1cc(F)c(-c2ncnc(C(F)(F)F)c2Cl)cc1[N+](=O)[O-] | 90 to 92
C=CCC(NC(=O)c1ccc(OC)cc1)C(=O)OCC (stereo not given) | 76 to 78
Cc1ccc(-c2cncn2-c2ccc(S(C)(=O)=O)cc2)cc1F | 147
O=[N+]([O-])c1ccc(C=[N+]([O-])c2cccc(CO)c2)cc1 | 207 to 209
CCOC(=O)c1cnn2c1nc(NC)c1cnc3c(cnn3CC)c12 | 321 to 322
CCCCN1CC=C(c2cccc3c2CC(=O)N3)CC1 | 110 to 111
OC(CS)(Cn1cncn1)c1ccc(Cl)cc1Cl (stereo not given) | 139 to 142
COC(=O)c1cccc2cc(Cc3cc(NC(C)=O)ncn3)ccc12 | 158 to 160
CCCCc1nn(-c2ccccc2Cl)c(=O)[nH]1 | 103 to 104
Fc1ccc(Oc2cnc3c(-c4ccccc4Cl)n[nH]c3n2)c(F)c1 | 240 to 242
Oc1cc(COCc2ccccc2)ncn1 | 102 to 103
CS(=O)(=O)N1CCN([C@](O)(CNC(=O)c2ccc(OCC#CCO)cc2)C(N)=O)CC1 | 162
CCCCS(=O)(=O)Nc1ccc(I)cc1 | 80 to 81
COc1nccc2c1C(c1ccccc1C(F)(F)F)c1c(ccnc1OC(C)C)N2 (stereo not given) | 183 to 185
CN(C(=O)CCS)c1nnc(-c2cccnc2)s1 | 149 to 151
COc1cc(C)nc(NC(=S)NNC(=O)c2ccccc2)n1 | 193 to 195
CC(C)(C)OC(=O)Nc1ccc(-c2ccccc2)cc1N | 137

SMILES | melting point [°C]
CCCCc1nn(-c2ccccc2C(F)(F)F)c(=O)n1Cc1ccc(-c2ccccc2S(=O)(=O)NC(=O)C2CC2)cc1 | 187 to 189
N#Cc1c(N2CCN(C(=O)c3c[nH]cn3)CC2)c2ccccc2n(Cc2ccc(F)cc2)c1=O | 176 to 183
C=C(C)C(=O)OCCOC(=O)C(=O)OCc1ccc(OCc2ccccc2)cc1 | 40 to 42
Cc1cc(Nc2ccc(Cl)cc2)nc(-n2ncc3ccccc32)n1 | 167 to 169
COc1ccc(O)cc1/C=C/C(=O)CC(=O)/C=C/c1cc(O)ccc1Br | 90 to 96
O=c1[nH]c(N2CCN(CCCCN3CCCCC3)CC2)cc2c(Cl)cccc12 | 172 to 173
FC(F)(F)c1cc(C(F)(F)F)c2nc(N3CCN(c4ncccc4C(F)(F)F)CC3)[nH]c2c1 | 142
Cc1cc(SC2=C(O)CC(CCc3ccc(N)cc3)(CCc3ccc(N)cc3)OC2=O)c(C(C)(C)C)cc1CO | 144 to 146
CS(=O)(=O)c1ccc(-c2ccccc2Br)cc1 | 168 to 170
CC(C)(C)OC(=O)N(c1ccccc1)S(=O)(=O)c1ccc2c(c1)CCC(C)(C)O2 | 117 to 120
COc1cccc2c1OCN(CCc1ccc(Cl)cc1)C2 | 87 to 88
COC(=O)c1cc2n(n1)-c1ccc(Cl)cc1C(c1ccccc1)NC2=O (stereo not given) | 236 to 238
CCOC(=O)c1cc2c([nH]1)c(N(C)S(=O)(=O)c1cccs1)cn2Cc1ccccc1 | 120
CCN1C=C(C(=O)O)C(=O)CC1c1cccc(Cl)c1 (stereo not given) | 143 to 145
Cc1ccc(S(=O)(=O)Nc2cc(C(C)(C)C)c(O)c(C(C)(C)C)c2)cc1 | 160 to 180
CCCCCCCC(=O)OCCc1c(-c2ccccc2)nc(N)n2ncnc12 | 89 to 91
Cc1nc2c(o1)-c1c(SC(C)C)sc(C(=O)O)c1CC2 | 277 to 278
O=c1[nH]c2cc(Cl)c(Cl)cc2[n+]([O-])c1-c1cccc(Oc2ccccc2)c1 | 258 to 260
COc1ccc(F)c(NCc2ccccc2)c1 | 56 to 58
CCSc1c(O[C@H]2CC[C@H](N)CC2)ccc2[nH]ncc12 | 157 to 158
